The values that follow come from ChEMBL document CHEMBL1136941, “Discovery of novel arylpyrazole series as potent and selective opioid receptor-like 1 (ORL1) antagonists” (Bioorg Med Chem Lett, 2009).

Bounds are passed on as bounds.

In data set [1] the target is T1, Nociceptin receptor (Homo sapiens, UniProt P41146). The experiment in a line: Displacement of [125I]Tyr14-NC/OFQ from human ORL1 receptor. A general note: Loss of bound radioactivity is the signal in a displacement assay; it reports binding, not function.
Data set [2] concerns the target T1, Nociceptin receptor. The experiment in a line: Antagonist activity at ORL1 receptor expressed in CHO cells assessed as inhibition of NC/OFQ-stimulated [35S]GTPgammaS binding. Format: functional, cell-based. (GTPγS is a poorly hydrolysed GTP analogue; its binding reports G protein activation.)
Data set [3] is described as follows: Lipophilicity, log D at pH 7.4 by shake-flask method. Format: physicochemical. Particulars: buffer.
In data set [4] the target is Voltage-gated inwardly rectifying potassium channel KCNH2 (Homo sapiens, UniProt Q12809). Briefly: Displacement of [35S]MK499 from human ERG expressed in HEK293 cells.
The next data set has as its target Mu-type opioid receptor (Homo sapiens, UniProt P35372). The experiment in a line: Displacement of [3H]diprenorphin from human cloned mu opioid receptor expressed in CHO cells. Format: cell-based.
Data set [5] addresses Kappa-type opioid receptor (Homo sapiens, UniProt P41145). Briefly: Displacement of [3H]U69593 from human cloned kappa opioid receptor expressed in CHO cells. Format: cell-based.

Voltage-gated inwardly rectifying potassium channel KCNH2, sequence (Q12809 whole entry): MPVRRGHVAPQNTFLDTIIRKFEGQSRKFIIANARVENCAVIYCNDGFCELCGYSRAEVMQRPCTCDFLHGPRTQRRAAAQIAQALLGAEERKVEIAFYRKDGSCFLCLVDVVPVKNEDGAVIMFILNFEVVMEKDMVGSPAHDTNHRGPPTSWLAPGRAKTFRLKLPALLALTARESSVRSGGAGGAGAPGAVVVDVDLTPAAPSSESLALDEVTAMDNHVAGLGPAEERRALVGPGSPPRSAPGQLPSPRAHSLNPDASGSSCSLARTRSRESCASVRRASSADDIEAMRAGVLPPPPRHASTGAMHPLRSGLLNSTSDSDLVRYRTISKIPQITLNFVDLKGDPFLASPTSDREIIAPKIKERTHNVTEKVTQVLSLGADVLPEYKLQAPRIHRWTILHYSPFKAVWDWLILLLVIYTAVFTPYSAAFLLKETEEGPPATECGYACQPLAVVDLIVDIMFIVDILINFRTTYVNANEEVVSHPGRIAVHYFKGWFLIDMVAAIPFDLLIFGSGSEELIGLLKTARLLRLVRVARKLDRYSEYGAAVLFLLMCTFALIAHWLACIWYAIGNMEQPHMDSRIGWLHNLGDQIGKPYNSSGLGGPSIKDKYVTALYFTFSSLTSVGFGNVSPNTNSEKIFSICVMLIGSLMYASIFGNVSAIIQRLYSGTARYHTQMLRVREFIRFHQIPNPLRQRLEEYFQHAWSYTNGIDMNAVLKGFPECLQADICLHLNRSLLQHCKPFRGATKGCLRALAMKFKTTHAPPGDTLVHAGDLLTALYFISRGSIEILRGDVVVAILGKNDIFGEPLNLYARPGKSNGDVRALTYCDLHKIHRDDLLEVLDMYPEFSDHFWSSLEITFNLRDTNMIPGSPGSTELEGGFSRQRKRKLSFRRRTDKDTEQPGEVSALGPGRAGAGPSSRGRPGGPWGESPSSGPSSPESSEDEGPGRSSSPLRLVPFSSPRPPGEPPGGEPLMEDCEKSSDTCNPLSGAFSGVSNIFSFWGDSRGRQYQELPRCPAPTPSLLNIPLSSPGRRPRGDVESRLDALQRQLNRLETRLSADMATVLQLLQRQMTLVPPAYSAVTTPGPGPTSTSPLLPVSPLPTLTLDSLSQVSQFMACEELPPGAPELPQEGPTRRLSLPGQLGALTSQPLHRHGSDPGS
T1 sequence (P41146 whole entry): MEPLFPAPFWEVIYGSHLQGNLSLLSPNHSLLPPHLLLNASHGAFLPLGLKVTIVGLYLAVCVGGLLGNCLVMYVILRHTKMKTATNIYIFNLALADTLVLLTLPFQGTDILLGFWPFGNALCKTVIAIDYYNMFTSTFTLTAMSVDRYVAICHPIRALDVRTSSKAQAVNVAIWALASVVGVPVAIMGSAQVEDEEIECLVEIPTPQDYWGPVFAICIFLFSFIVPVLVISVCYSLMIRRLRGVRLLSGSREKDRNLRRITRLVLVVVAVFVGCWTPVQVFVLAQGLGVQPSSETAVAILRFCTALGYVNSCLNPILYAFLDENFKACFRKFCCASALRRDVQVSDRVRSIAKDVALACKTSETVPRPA
Mu-type opioid receptor, sequence (P35372 whole entry): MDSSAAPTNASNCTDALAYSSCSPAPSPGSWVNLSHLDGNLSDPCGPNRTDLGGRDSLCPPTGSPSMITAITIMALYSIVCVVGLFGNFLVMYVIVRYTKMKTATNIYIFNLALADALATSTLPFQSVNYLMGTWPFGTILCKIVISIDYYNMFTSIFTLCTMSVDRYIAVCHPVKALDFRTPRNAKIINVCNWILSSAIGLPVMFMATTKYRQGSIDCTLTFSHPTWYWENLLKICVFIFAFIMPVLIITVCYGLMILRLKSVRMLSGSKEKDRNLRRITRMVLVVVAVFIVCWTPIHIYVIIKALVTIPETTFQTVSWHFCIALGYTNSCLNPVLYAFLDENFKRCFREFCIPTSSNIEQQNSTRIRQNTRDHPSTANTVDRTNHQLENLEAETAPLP
Kappa-type opioid receptor, sequence (P41145 whole entry): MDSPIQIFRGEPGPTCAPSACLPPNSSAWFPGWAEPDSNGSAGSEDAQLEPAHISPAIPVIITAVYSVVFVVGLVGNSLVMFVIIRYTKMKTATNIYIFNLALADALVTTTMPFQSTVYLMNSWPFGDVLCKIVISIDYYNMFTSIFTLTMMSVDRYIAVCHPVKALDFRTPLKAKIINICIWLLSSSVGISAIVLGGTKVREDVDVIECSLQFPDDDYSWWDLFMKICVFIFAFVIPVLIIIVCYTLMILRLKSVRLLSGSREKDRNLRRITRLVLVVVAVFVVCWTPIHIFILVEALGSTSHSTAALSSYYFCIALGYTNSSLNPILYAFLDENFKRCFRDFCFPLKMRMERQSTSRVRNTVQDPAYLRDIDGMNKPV

As to `Cc1c(CN(C)C2CCCCC2)nn(-c2ccc(Cl)cc2Cl)c1-c1ccc(Cl)cc1`, at Nociceptin receptor [1], the IC50 (as a rule, the midpoint of a concentration-inhibition curve) was more than 1000 nM.

In the case of `Cc1ccc(-c2c(C)c(CN[C@H]3CC[C@@H](F)C3)nn2-c2ncccc2Cl)cn1`, the IC50 at Nociceptin receptor [2] was 1 nM; on Nociceptin receptor [1], 2.5 nM. Moreover, the logD (commonly lipophilicity at a set pH, counting ionised and neutral species) in data set [3] was 1.3.

Compound `Cc1c(CNC2CCCC2)nn(-c2ccc(Cl)cc2Cl)c1-c1ccccn1` came in with an IC50 at Nociceptin receptor [1] of 530 nM.

Consider `Cc1c(CNC2CCCC2)nn(-c2ncccc2Cl)c1-c1cccnc1`, for which the IC50 worked out at 23000 nM in data set [4] and 61 nM at Nociceptin receptor [1]. This compound gave a logD in data set [3] of 1.3.

In turn, `CCc1ccc(-c2c(C)c(CNC3CCCC3)nn2-c2ncccc2Cl)cn1` returned an IC50 at Nociceptin receptor [1] of 67 nM. The logD in data set [3] was found to be 2.

At Nociceptin receptor [1], `Cc1c(CNC2CCCC2)nn(-c2ccc(Cl)cc2Cl)c1-c1ccncc1` yielded a half-inhibitory concentration (IC50) of more than 1000 nM.

Compound `Cc1ccc(-c2c(C)c(CNC3CCCC3)nn2-c2ncccc2C)cn1` showed an IC50 at Nociceptin receptor [1] of 33 nM. In data set [3], the logD is 1.2.

`Cc1ncc(-c2c(C)c(CN[C@H]3CC[C@@H](F)C3)nn2-c2ncccc2Cl)cc1F`: the IC50 was determined as 0.31 nM at Nociceptin receptor [2]; 41000 nM in data set [4]; 0.52 nM on Nociceptin receptor [1]; 5600 nM on Mu-type opioid receptor; 530 nM in data set [5]. In data set [3], this compound gave a logD of 1.8.

`Cc1c(CN(C(C)C)C2CCCCC2)nn(-c2ccc(Cl)cc2Cl)c1-c1ccc(Cl)cc1`: the IC50 on Nociceptin receptor [1] was more than 1000 nM.

Turning to `Cc1c(CNC2CCCC2)nn(-c2ccc(Cl)cc2Cl)c1-c1ccc(Cl)cc1`, the 50% inhibitory concentration (IC50) was 23 nM in data set [4] and 28 nM on Nociceptin receptor [1]. Further, in data set [3], the logD was more than 4.

As to `Cc1ccc(-c2c(C)c(CNC3CCCC3)nn2-c2ncccc2S(C)(=O)=O)cn1`, the IC50 at Nociceptin receptor [1] was 72 nM.

Consider `Cc1cncc(-c2c(C)c(CNC3CCCC3)nn2-c2ncccc2Cl)c1`, for which the values for the IC50 (in data set [4]; on Nociceptin receptor [1]) were 9000 nM and 13 nM, respectively. This compound also registered a logD in data set [3] of 1.6.

As for `Cc1c(CNC(C)C)nn(-c2ccc(Cl)cc2Cl)c1-c1ccc(Cl)cc1`, the IC50 on Nociceptin receptor [2] is 480 nM; in data set [4], 23 nM; at Nociceptin receptor [1], 350 nM.

Turning to `Cc1c(CNCC(C)C)nn(-c2ccc(Cl)cc2Cl)c1-c1ccc(Cl)cc1`, the IC50 at Nociceptin receptor [1] stood at 150 nM.

Consider `Cc1c(CNC2CCCC2)nn(-c2ncccc2Cl)c1-c1ccc(Cl)nc1`, for which the IC50 on Nociceptin receptor [2] was determined as 12 nM; in data set [4], 2700 nM; on Nociceptin receptor [1] it was 11 nM. The compound further returned a logD in data set [3] of 2.1.

On Nociceptin receptor [1], `Cc1c(CNC2CCCC2)nn(-c2ncccc2Cl)c1-c1ccc(C(F)(F)F)nc1` had an IC50 of 270 nM. The same compound had a logD in data set [3] of 2.2.

As to `Cc1c(CNCCC(C)C)nn(-c2ccc(Cl)cc2Cl)c1-c1ccc(Cl)cc1`, the half-maximal inhibitory concentration (IC50) at Nociceptin receptor [1] stood at 150 nM.

On to `Cc1ccc(-c2c(C)c(CNC3CCCC3)nn2-c2ncc(Cl)cc2Cl)cn1`, for which the IC50 at Nociceptin receptor [1] worked out at 8.2 nM. In data set [3], this compound registered a logD of 2.5.

As to `Cc1c(CNC2CCCC2)nn(-c2ccc(Cl)cc2Cl)c1-c1cccnc1`, the logD in data set [3] came out at 2.9.

`Cc1ccc(-c2c(C)c(CNC3CCCC3F)nn2-c2ncccc2Cl)cn1` (stereo not given): the IC50 was 11 nM at Nociceptin receptor [2], 30000 nM in data set [4] and 7.1 nM at Nociceptin receptor [1]. This compound also showed a log distribution coefficient (logD) in data set [3] of 2.

With `Cc1ccc(-c2c(C)c(CNC3CCCC3)nn2-c2ncccc2C(F)(F)F)cn1`, the IC50 on Nociceptin receptor [1] was 36 nM. For the same compound, the logD in data set [3] was 1.9.

Turning to `Cc1c(CNC2CCCCC2)nn(-c2ccc(Cl)cc2Cl)c1-c1ccc(Cl)cc1`, the IC50 at Nociceptin receptor [1] stood at 75 nM.

With `Cc1ncc(-c2c(C)c(CNC3CCCC3)nn2-c2ncccc2Cl)cc1F`, the IC50 came to 1.2 nM at Nociceptin receptor [2] and 1.1 nM on Nociceptin receptor [1]. In data set [3], this compound had a logD of 2.1.

In the case of `Cc1ccc(-c2c(C)c(CNC3CCCC3)nn2-c2ncccc2Cl)cn1`, the IC50 was found to be 4.7 nM on Nociceptin receptor [2], 16000 nM in data set [4] and 4 nM on Nociceptin receptor [1]. The compound also registered a pH-dependent lipophilicity (logD) in data set [3] of 1.7.

Turning to `Cc1ccc(-c2c(C)c(CNC3CCC(F)(F)C3)nn2-c2ncccc2Cl)cn1` (stereo not given), the IC50 on Nociceptin receptor [2] stood at 4.5 nM; in data set [4], 21000 nM; at Nociceptin receptor [1], 9.3 nM. The logD in data set [3] was 2.1.

With `Cc1c(CN2CCCCC2)nn(-c2ccc(Cl)cc2Cl)c1-c1ccc(Cl)cc1`, the IC50 on Nociceptin receptor [1] stood at 560 nM.
